One series deals with mTOR. Put plainly: mTOR phosphorylation. Type of series: cell-based. An excerpt: The inventors then have measured mTOR phosphorylation again to reflect protein synthesis and have observed a marginal leucine-induced phosphorylation and a strong urolithin B-induced phosphorylation.
Series [1] deals with C2C12 murine skeletal muscle myoblasts. The series can be described thus: diameter of C2C12 myotubes (anti-desmin labelling). It is filed as cell-based. The conditions noted are these: for mean diameter size of myotubes: C2C12 myotubes, urolithin B 15 μM 24 h, TNF-alpha 10 ng/mL 4 h, leucine 5 mM. The protocol:
The inventors selected C2C12 murine skeletal muscle myoblasts for measuring the effect of polyphenols on muscle metabolism, especially when submitted to inflammatory stress (e.g. upon TNF-alpha exposure). In these conditions, anabolism is blocked.
C2C12 myoblasts were differentiated for 4 days using 1% horse serum and 1% penicillin/streptomycin. The cells were thereafter grown for 24 h either with the same differentiation medium or with the differentiation medium supplemented with 15 μM urolithin B (conditions 5-8 of FIGS. 2-4 and of Table 1). Then the cells were grown either with the same differentiation medium or in the differentiation medium supplemented with 10 ng/mL TNF-alpha for 4 h (conditions 3-4 and 7-8 of FIGS. 2-4 and of Table 1). Thereafter, the cells were grown either with the same differentiation medium or in the differentiation medium supplemented with 5 mM leucine (conditions 2, 4, 6 and 8 of FIGS. 2-4 and of Table 1). The myotubes were labelled using anti-desmin antibodies, and nuclei labelling by Hoechst staining. Urolithin B consistently stimulates the diameter of myotubes.

A further series deals with androgen receptor. The series can be described thus: androgen receptor agonism (concluded from bicalutamide blockade). Type of series: cell-based. From the text: Finally, the inventors have measured the effect of rapamycin, on another mTOR inhibitor and of the anti-androgen bicalutamide (FIGS. 5-6 show the effect on the size of the muscular fibres) on the urolithin B-induced effects (including on the phosphorylation on mTOR, of AMPK, . . . ) and conclude that urolithin B acts upon binding and activating the androgen receptor, then by releasing the AMPK-inhibition on mTOR, increases protein synthesis in muscle cells, then the diameter of muscle fibres.

The next series relates to P70S6k. Put plainly: P70S6k phosphorylation. It is filed as cell-based.
Series [2] relates to breast and on prostate cancer cell lines. The conditions noted are these: cited from earlier work.
In the next series the test system is C2C12 myoblasts. Put plainly: toxicity of urolithin B addition. It is filed as cell-based, murine. The conditions noted are these: concentrations of up to 40 μM. The protocol: The inventors have firstly measured if the addition of urolithin B presents some toxicity, but no toxicity was measured for concentrations of up to 40 μM.
The conditions of series [3]: human patients fed with pomegranate extract; compared with urolithin A; cited from earlier work.
The next series has as its system PRAS40. Put plainly: PRAS40 phosphorylation. Type of series: cell-based. From the text:
(§1) The inventors then have measured Akt and PRAS40 phosphorylation still to analyse possible metabolism pathways. However, besides a tendency of synergy between the leucine and urolithin B addition, no major difference in phosphorylation patterns were observed.

The subject of the next series is denervated muscle. The series can be described thus: weight loss of denervated muscle, intravenous. It is filed as in vivo. To be noted: mammal.
For series [4] the following is noted: compared with urolithins A, C and D and whole polyphenol extract; cited from earlier work.
The test system of a further series is AMPK. Put plainly: AMPK phosphorylation. It is filed as cell-based.
The test system of another series is Akt. The series can be described thus: Akt phosphorylation. It is filed as cell-based.
Excerpt: as §1

As to `CC(C)C[C@H](N)C(=O)O` [Leucine, leucine], in the series with mTOR, the mTOR phosphorylation result was “marginal”. In addition, the “mean diameter size of myotubes” value in [1] is on record as 25.5.
Take `O=c1oc2cc(O)ccc2c2ccc(O)cc12` [urolithin A, reference compound]: the androgen-receptor agonist entry in the series with androgen receptor is reported as “not”. For the same compound, in series [1] (up to 10 μM urolithin A, vs control), the size of myotubes entry was “does not increase”. In addition, the “induction of P70S6k phosphorylation” value in the series with P70S6k is “almost no induction”. Moreover, the anti cancer activity entry in series [2] is reported as “direct anti cancer activity”.
Take `O=c1oc2cc(O)ccc2c2ccccc12` [urolithin B]: the toxicity entry in the series on C2C12 myoblasts is listed as “no toxicity”. Further, in the series on androgen receptor, the androgen-receptor agonist entry is “agonist”. Besides, the “amount in the blood” value in series [3] was “much lower”. Further, in the series on PRAS40, the PRAS40 phosphorylation entry is listed as “does not induce”. For the same compound, the “weight loss of denervated muscle” value in the series with denervated muscle is listed as “prevents”. The “antioxidant and anti-inflammatory properties” value in [4] is given as “much weaker”. In addition, the mTOR phosphorylation entry with mTOR was “strong”. Moreover, the AMPK phosphorylation entry in the series on AMPK was “strong reduction”. Further, the “mean diameter size of myotubes” value in series [1] was found to be 32.6. Also, the size of myotubes result in [1] (urolithin B at 15 μM) is recorded as “significantly increased”. Besides, the Akt phosphorylation result in the series on Akt is “does not induce”. Moreover, the anti cancer activity result in [2] is “direct anti cancer activity”.
TNFa: in series [1], the “mean diameter size of myotubes” value stood at 16.7.

Source of the values: patent US20160045472A1, “UROLITHIN B FOR MUSCLE GROWTH” (PROCELL SPRL, priority 2013, published 2016).
